Some results are limits rather than exact numbers.

This assay has as its target T1, E-selectin (Homo sapiens, UniProt P16581).
T1 sequence (P16581 whole entry): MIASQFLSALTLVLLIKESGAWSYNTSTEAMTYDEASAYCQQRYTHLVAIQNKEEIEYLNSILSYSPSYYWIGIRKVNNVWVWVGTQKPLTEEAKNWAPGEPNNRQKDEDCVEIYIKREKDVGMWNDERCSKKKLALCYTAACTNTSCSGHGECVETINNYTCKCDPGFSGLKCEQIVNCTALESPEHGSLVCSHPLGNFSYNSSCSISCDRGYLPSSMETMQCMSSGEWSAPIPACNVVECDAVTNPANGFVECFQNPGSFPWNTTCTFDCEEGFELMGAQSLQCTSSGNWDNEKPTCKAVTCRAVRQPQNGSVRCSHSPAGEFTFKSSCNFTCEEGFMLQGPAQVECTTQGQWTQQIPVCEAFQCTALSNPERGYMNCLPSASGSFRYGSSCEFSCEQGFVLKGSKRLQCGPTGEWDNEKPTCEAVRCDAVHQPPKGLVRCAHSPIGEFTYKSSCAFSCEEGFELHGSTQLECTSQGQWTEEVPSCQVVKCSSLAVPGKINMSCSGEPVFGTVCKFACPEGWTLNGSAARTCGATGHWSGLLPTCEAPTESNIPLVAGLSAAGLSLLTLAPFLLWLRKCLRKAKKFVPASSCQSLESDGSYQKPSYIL
The experiment in a line: Inhibitory activity against Selectin E.

On to `CC(=O)N[C@H]1[C@H]([C@H](O)[C@H](O)CO)O[C@@](O[C@H]2[C@@H](O)[C@@H](CO)O[C@@H](O[C@@H]([C@H](O[C@@H]3O[C@@H](C)[C@@H](O)[C@@H](O)[C@@H]3O)[C@H](C=O)NC(C)=O)[C@H](O)CO)[C@@H]2O)(C(=O)O)C[C@@H]1O` [SIALYL LEWIS X], for which the half-maximal inhibitory concentration (IC50) is under 1000 µM.

As a reminder, the IC50 is the concentration at which inhibition is half-maximal.

Values taken from ChEMBL document CHEMBL1149996, “Combined glycomimetic and multivalent strategies for the design of potent selectin antagonists” (Bioorg Med Chem Lett, 1996).
